Reference: patent US8158587B2, “Compound having histone deacetylase-inhibiting activity, and pharmaceutical composition comprising the compound as an active ingredient” (Kyushu Institute of Technology, priority 2006, dated 2012)

How the values were obtained:
Assay in all cases: Human cancer cell line panel, proliferation (sulforhodamine B)
Type in all cases: cell-based
[1] = test system: brain tumor cell line SNB-75; conditions: SNB-75, 2 days of cultivation; read-out: 50% inhibitory concentration, proliferation
Excerpt: (§1) The characteristics of the human cancer cell proliferation-inhibiting activity of the compounds of the present invention were examined by the “method of evaluating the mechanisms of action of compounds using a panel of human cancer cell lines” as proposed by Yamori et al. (cf. Gan to Kagaku Ryoho (Cancer and Chemotherapy) 29 Suppl. II (2002) and Cancer Chemother. Pharmacol. 52 Suppl. I, S74-79 (2003)).
(§2) This system includes […] (7 lung cancer, 6 stomach cancer, 5 colon cancer, 5 ovarian cancer, 6 brain tumor, […], 2 kidney cancer and 2 prostate cancer cell lines as well as one melanoma line) and the method comprises measuring the in vitro drug susceptibilities of those cancer cell lines and expressing the differences in drug susceptibility among the respective cancer cell lines as a fingerprint. […] By utilizing this property, it is possible to estimate the mechanisms of action of a compound. The above method is also characterized in that an anticancer substance showing new and unique mechanisms of action different from those of the existing anticancer agents can be selected.
(§3) Cancer cells of each cell line are sowed onto a 96-well plate, a sample solution is added on the next day and, after 2 days of cultivation, the cell proliferation is measured by colorimetry using sulforhodamine B. The deviations in effective concentration for the respective cancer cell lines from the mean effective drug concentration for the 39 cancer cell lines subjected to measurement are calculated and shown in the form a fingerprint.

[2] = test system: melanoma cell line LOX-IMVI; conditions: 2 days of cultivation, read-out: 50% inhibitory concentration, proliferation
Excerpt: as §1, §2, §3

[3] = test system: colon cancer cell line HCC2998; conditions: HCC2998, 2 days of cultivation; read-out: 50% inhibitory concentration, proliferation
Excerpt: as §1, §2, §3

[4] = test system: kidney cancer cell line RXF-631L; conditions: 2 days of cultivation, read-out: 50% inhibitory concentration, proliferation
Excerpt: as §1, §2, §3

[5] = test system: colon cancer cell line HT-29; conditions: HT-29, 2 days of cultivation; read-out: 50% inhibitory concentration, proliferation
Excerpt: as §1, §2, §3

[6] = test system: stomach cancer cell line MKN1; conditions: MKN1, 2 days of cultivation; read-out: 50% inhibitory concentration, proliferation
Excerpt: as §1, §2, §3

Measured: IC50

CC1(C)NC(=O)[C@H](CCCCCSCc2ccncc2)NC(=O)[C@H]2CCCN2C(=O)[C@H](Cc2ccccc2)NC1=O [Ky-26, cyclo(-L-Am7(4-pyridylmethyl)-Aib-L-Phe-D-Pro-)]
≤ 100 nM: all assays above

CC(=O)CSCCCCC[C@@H]1NC(=O)[C@H]2CCCN2C(=O)[C@H](Cc2ccccc2)NC(=O)C(C)(C)NC1=O [Ky-72, cyclo(-L-Am7(acetonyl)-Aib-L-Phe-D-Pro-)]
≤ 100 nM: all assays above
